Assay results reported in patent publication US9629828B2, “Methods of treating traveler's diarrhea and hepatic encephalopathy” (priority 2008, dated 2017).
Where “and” joins values, the source holds several entries; their conditions need not be identical. Identical values can stand only once. Entries after “also recorded” stand apart in the source; their conditions may differ.

Assays:
[1] = test system: subjects in remission from hepatic encephalopathy (HE); test: First study: asterixis grade (time to any increase, change from baseline); format: in vivo, human; conditions: for Probability of no increase in asterixis grade: Kaplan-Meier; for Probability of no increase in asterixis grade / Cumulative number of events (increase in asterixis grade) / Event probability (increase in asterixis grade during the treatment interval) / Number of events (increase in asterixis grade): ITT, N = 140
Protocol: Asterixis (flapping tremor) was determined with the subject holding both arms and forearms extended with wrists dorsiflexed and fingers open for ≧30 seconds. Asterixis was measured on a continuum of 5 grades, e.g., grades 0 and 4=no abnormal movement vs. almost continuous flapping motions, respectively as shown below:
Efficacy in regard to asterixis grade was measured as time to any increase from baseline in asterixis grade.
FIG. 12 illustrates time to any increase from baseline in asterixis grade by treatment group in the ITT population in the first study. Table 21 presents estimates of the proportions of subjects who had any increase in asterixis grade over the course of the Treatment Period and results of statistical analyses. Subjects who discontinued prior to experiencing an increase in asterixis grade and prior to completion of the 6-month treatment period were censored at the time of discontinuation.

[2] = test system: subjects in remission from hepatic encephalopathy (HE); test: First study: critical flicker frequency (CFF) test; format: in vivo, human; conditions: for Critical flicker frequency test: r9 Mean, r11 Median, r12 Min, r13 Max; for Mean (SD) change in CFF result: baseline to end of treatment
Protocol: The Critical Flicker Frequency (CFF) was assessed for each subject at screening, baseline, visits 3 through 14 and the end of study visit using the Lafayette Flicker Fusion (Lafayette Instrument Company, Inc). Circular light pulses with a 1:1 ratio between the visual impulse and the interval were used with decreasing frequency in gradual steps of 0.5 to 0.1 Hz/second. The frequency of the white light, which is initially generated as a high-frequency pulse (50 Hz) and which gives the patient the impression of a steady light, was reduced gradually until the patient had the impression that the steady light had changed to a flicker. The patient registered this change by pressing a hand-held switch. […] The process was conducted in a quiet, semi-darkened room without distracting noises and took about 10 minutes.
The critical flicker frequency (CFF) was assessed for each subject using a specialized CFF instrument. The CFF is the frequency at which the subject observes a constant light transition to a flickering light and is measured in Hertz (Hz). CFF is an objective assessment of mental status.
The CFF was measured on a continuous scale and was the mean of 8 separate fusion-to-flicker transition tests performed in rapid succession.
Mean values and mean changes from baseline in blood ammonia concentration and critical flicker frequency values were collected. Analyses of blood ammonia concentrations and critical flicker frequency values were based upon quantitative values (not qualitative grades). Treatment differences for mean change from baseline in these parameters was estimated using a mixed effects model with fixed effects for time and baseline value.

[3] = test system: subjects with a history of recurrent, overt, episodic HE; test: Second study: hospitalization rates; format: in vivo, human
Source text: Normalizing for subject exposure, this represents a hospitalization rate of 0.60 event/PEY. A total of 59 were hospitalized due HE episodes (e.g., HE-caused). Normalizing for subject exposure, this represents an HE-caused hospitalization rate of 0.29 event/PEY. […] All subjects were capable of worsening over time, and 24/266 subjects (9.0%) did so by 1 or 2 grades.

[4] = test system: subjects with a history of recurrent, overt, episodic HE; conditions: human, in vivo
Source text: At the time of this interim analysis, TEAEs were reported in 230 subjects (86.5%). The most common TEAEs (e.g., in ≧10% of total subjects) experienced by subjects were the following: peripheral edema (15.8%); urinary tract infection and nausea (12.8% each); and abdominal pain and ascites (10.5% each).
Treatment-emergent SAEs were experienced by 47.4% of subjects.

cytochrome P450 2C19 = target: T1, cytochrome P450 2C19 (Homo sapiens, UniProt P33261); test: In vitro cytochrome P450 inhibition; format: in vitro ADME; conditions: 2 to 200 ng/mL
T1 construct: from tissue; host or cells: human liver fractions

P-glycoprotein = P-glycoprotein (Homo sapiens, UniProt P08183); test: In vitro P-glycoprotein substrate study (efflux ratio, verapamil); format: in vitro ADME
Source text: Therefore, no clinically significant interactions with other drugs affected by P-glycoprotein are anticipated.

rabbits [5] = conditions: rabbit, in vivo
Source text: (§1) These effects include cleft palate, agnatha, jaw shortening, hemorrhage, eye partially open, small eyes, brachygnathia, incomplete ossification, and increased thoracolumbar vertebrae.

rats [6] = conditions: rat, in vivo
Source text: as §1

Tg.rasH2 mice = conditions: Tg.rasH2, mouse, in vivo, 26 weeks
rat hepatocyte = format: cell-based
in vivo = conditions: rat
Protocol: (§2) However, plasma drug levels were not measured in these studies. […] The maximum plasma AUC0-8 hr values from the 6 month rat and 9 month dog toxicity studies (range: 42-127 ng·h/mL) was lower than the maximum plasma AUC0-8 hr values in cirrhotic patients (range: 19-306 ng·h/mL).

rats [7] = test: in vivo; conditions: rat
Protocol: as §2

[8] = test system: subjects in remission from hepatic encephalopathy (HE); test: First study: HE-related, HE-caused and all-cause hospitalization; format: in vivo, human
rabbits [9] = conditions: rabbit, in vivo; remark: listed apart in the source
[10] = treatment interval 0 to <28 days
[11] = treatment interval 28 to <56 days
[12] = treatment interval 56 to <84 days
[13] = treatment interval 84 to <140 days
[14] = treatment interval 140 to <168 days

P-glycoprotein, sequence (P08183 whole entry): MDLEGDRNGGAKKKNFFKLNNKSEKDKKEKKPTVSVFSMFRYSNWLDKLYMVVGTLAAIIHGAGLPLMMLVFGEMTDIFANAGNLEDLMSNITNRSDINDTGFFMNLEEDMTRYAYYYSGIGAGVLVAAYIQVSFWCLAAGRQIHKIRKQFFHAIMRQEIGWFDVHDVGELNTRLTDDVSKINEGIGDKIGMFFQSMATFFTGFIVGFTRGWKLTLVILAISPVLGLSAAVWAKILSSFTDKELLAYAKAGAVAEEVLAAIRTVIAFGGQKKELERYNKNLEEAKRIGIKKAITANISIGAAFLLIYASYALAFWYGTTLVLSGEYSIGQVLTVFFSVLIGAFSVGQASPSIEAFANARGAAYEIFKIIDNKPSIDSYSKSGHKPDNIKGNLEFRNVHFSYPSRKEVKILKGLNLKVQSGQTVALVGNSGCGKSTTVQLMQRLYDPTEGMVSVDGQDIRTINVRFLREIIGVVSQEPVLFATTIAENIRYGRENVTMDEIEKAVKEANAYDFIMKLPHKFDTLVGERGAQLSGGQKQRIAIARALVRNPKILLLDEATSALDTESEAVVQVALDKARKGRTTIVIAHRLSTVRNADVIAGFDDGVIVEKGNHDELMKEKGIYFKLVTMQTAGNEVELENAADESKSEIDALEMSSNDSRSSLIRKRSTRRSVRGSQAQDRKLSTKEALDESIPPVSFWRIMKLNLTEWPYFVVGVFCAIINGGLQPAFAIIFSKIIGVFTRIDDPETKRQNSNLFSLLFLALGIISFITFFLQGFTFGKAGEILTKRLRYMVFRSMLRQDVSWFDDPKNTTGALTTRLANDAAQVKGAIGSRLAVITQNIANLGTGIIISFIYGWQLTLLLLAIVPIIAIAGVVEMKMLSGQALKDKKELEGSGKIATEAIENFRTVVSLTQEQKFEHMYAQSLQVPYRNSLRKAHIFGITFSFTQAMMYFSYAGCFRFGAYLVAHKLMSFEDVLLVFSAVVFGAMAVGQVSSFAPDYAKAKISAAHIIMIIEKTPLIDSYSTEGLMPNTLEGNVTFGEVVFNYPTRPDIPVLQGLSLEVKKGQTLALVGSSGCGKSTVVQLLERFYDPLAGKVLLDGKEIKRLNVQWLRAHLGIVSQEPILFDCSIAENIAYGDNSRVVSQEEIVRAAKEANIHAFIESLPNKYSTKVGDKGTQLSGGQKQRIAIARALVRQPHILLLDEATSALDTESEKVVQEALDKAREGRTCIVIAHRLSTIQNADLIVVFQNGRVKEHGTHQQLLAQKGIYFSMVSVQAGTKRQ
T1 sequence (P33261 whole entry): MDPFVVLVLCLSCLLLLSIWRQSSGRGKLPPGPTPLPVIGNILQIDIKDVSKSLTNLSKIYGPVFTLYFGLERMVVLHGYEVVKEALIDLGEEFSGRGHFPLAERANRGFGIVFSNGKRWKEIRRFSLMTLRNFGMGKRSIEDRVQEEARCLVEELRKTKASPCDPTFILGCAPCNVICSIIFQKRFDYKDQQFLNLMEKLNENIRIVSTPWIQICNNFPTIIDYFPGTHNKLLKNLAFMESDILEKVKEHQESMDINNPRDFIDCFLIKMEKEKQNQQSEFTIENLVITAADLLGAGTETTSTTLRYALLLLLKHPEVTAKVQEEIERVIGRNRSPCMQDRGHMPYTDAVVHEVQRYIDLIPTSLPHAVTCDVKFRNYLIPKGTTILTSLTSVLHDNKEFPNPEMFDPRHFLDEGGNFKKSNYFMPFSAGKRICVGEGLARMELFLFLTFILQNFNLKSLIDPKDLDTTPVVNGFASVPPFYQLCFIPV

CO[C@H]1/C=C/O[C@@]2(C)Oc3c(C)c(O)c4c(O)c(c5c(nc6cc(C)ccn65)c4c3C2=O)NC(=O)/C(C)=C\C=C\[C@H](C)[C@H](O)[C@@H](C)[C@@H](O)[C@@H](C)[C@H](OC(C)=O)[C@@H]1C [rifaximin, (2S,16Z,18E,20S,21S,22R,23R,24R,25 S,26S,27S,28E)-5,6,21,23,25-pentahydroxy-27-methoxy-2,4,11,16,20,22,24,26-octamethyl-2,7-(epoxypentadeca-[1,11,13]trienimino)benzofuro[4,5-e]pyrido[1,2-á]-benzimidazole-1,15(2H)-dione,25-acetate]
Number of subjects in each level of change from baseline in asterixis grade ([1]; Baseline to EOT, level: r10 −2, r11 −1, r12 0, r13 1, r14 2, r15 3, r16 4): 18 (12.9%) n (%)
Probability of no increase in asterixis grade [1, 10]: 1.0000
Probability of no increase in asterixis grade [1, 11]: 0.9048
Probability of no increase in asterixis grade [1, 12]: 0.8499
Probability of no increase in asterixis grade [1, 13]: 0.7910
Probability of no increase in asterixis grade [1, 14]: 0.7637
Probability of no increase in asterixis grade ([1]; treatment interval ≧168 days): 0.7534
subjects with changes in asterixis grade of 1, 2, 3, or 4 ([1]; baseline to end of treatment): 11.6%
subjects with changes in asterixis grade of −2, −1, and 0 ([1]; baseline to end of treatment): 88.5%
prevention of worsening of asterixis grade, times versus placebo ([1]; in vivo): 1.92 times
reduction in risk of worsening of asterixis ([1]; in vivo): 35%
subjects with increases in asterixis grade ([1]; in vivo): 32 of 140
time to first increase in Asterixis grade vs placebo (FIG. 5) ([1]; in vivo): increased time to the first increase in Asterixis grade
Cumulative number of events (increase in asterixis grade) [1, 10]: 13
Event probability (increase in asterixis grade during the treatment interval) [1, 10]: 0.10
Number of events (increase in asterixis grade) [1, 10]: 13
Cumulative number of events (increase in asterixis grade) [1, 11]: 20
Event probability (increase in asterixis grade during the treatment interval) [1, 11]: 0.06
Number of events (increase in asterixis grade) [1, 11]: 7
Cumulative number of events (increase in asterixis grade) [1, 12]: 27
Event probability (increase in asterixis grade during the treatment interval) [1, 12]: 0.07
Number of events (increase in asterixis grade) [1, 12]: 7
Cumulative number of events (increase in asterixis grade) [1, 13]: 30
Event probability (increase in asterixis grade during the treatment interval) [1, 13]: 0.03
Number of events (increase in asterixis grade) [1, 13]: 3
Cumulative number of events (increase in asterixis grade) [1, 14]: 31
Event probability (increase in asterixis grade during the treatment interval) [1, 14]: 0.01
Number of events (increase in asterixis grade) [1, 14]: 1
Cumulative number of events (increase in asterixis grade) ([1]; treatment interval ≧168 days): 32
Event probability (increase in asterixis grade during the treatment interval) ([1]; treatment interval ≧168 days): 0.03
Number of events (increase in asterixis grade) ([1]; treatment interval ≧168 days): 1
Mean (SD) CFF result ([2]; Baseline): 36.90 (5.47) Hz
Critical flicker frequency test ([2]; Day 140, mean): 38.7 Hz
Critical flicker frequency test ([2]; Day 140, median): 38.9 Hz
Critical flicker frequency test ([2]; EOT, median): 37.8 Hz
Mean (SD) CFF result ([2]; End of treatment): 37.81 (4.88) Hz
Mean (SD) change in CFF result [2]: 0.945 (±4.75) Hz
Mean (SD) change in CFF result ([2]; listed as Rifaximin): 0.945 (4.75) Hz
improvement in CFF results compared with placebo ([2]; in vivo): statistically significant greater improvement
subjects hospitalized due HE episodes ([3]; in vivo): 59 subjects
subjects hospitalized for any cause ([3]; in vivo): 133 of 266
HE-caused hospitalization rate ([3]; second study): 0.29 event/PEY
TEAE abdominal pain [4]: 10.5%
TEAE ascites [4]: 10.5%
TEAE nausea [4]: 12.8%
TEAE peripheral edema [4]: 15.8%
TEAE urinary tract infection [4]: 12.8%
subjects with HE counted for the safety analyses [4]: 21.4%
subjects with TEAEs [4]: 86.5%
subjects with at least 1 severe TEAE [4]: 40.2%
subjects with treatment-emergent SAEs [4]: 47.4%
inhibition of 2C19 (cytochrome P450 2C19): did not inhibit
P-glycoprotein substrate (P-glycoprotein): substrate of P-glycoprotein; also recorded: substrate for P-glycoprotein
fertility / harm to the fetus (rabbits [5]): no evidence of impaired fertility or harm to the fetus
fertility / harm to the fetus (rats [6]): no evidence of impaired fertility or harm to the fetus
female mice with ruffled fur and hunched appearance (Tg.rasH2 mice): 2/25
genotoxicity (rat hepatocyte): not genotoxic
AUC(0-t) (in vivo): 42 to 127 ng·h/mL
toxic effects (rats [7]): negligible toxic effects
all-cause hospitalization rate [8]: 0.92 events/PEY and 0.90 events/PEY
toxic effects (rabbits [9]): negligible toxic effects
